Laboratory results published in patent US6451976B1, “Bi-or multifunctional molecules based on a dendroaspin scaffold” (Trigen Limited, priority 1997, dated 2002).

B1: SEQ ID NO:43: modified dendroaspin with hirudin domain grafted into loops I and II (protein)
chain: RICFTPRGDMPGPYPGPCQEDSCYKNIWTFDNIIRRGCGCFTPRGDMPGPYFPRPQSHNDGDFEEIPEEYLQ

Assays:
[1] = test system: washed platelets; experiment: Thrombin-induced platelet aggregation; assay type: cell-based, human; settings: summary of FIG. 3D
Protocol: (§1) Platelet aggregation: Platelet aggregation was measured by the increase in light transmission as described in Lu et al (1994) Biochem J 304: 929-936 and used to identify RGD function. Briefly, platelet rich plasma (PRP) was prepared from citrated human blood from healthy individuals by centrifugation at 200 g for 15 min. Platelets were prepared from PRP by centrifugation at 1200 g for 15 min. The pellets were washed and resuspended in adhesion/aggregation buffer (145 mM NaCl, 5 mM Kcl, 1 mM MgCl2, 2 mM CaCl2, 10 mM glucose, 3.5 mg/ml BSA and 10 mM HEPES, pH 7.35) and adjusted to a count of 3×10^8/ml. Platelet aggregation (320 μl incubations) was induced with 10 μM ADP in the presence of 1.67 mg/ml fibrinogen and measured using a Payton Dual-Aggregometer linked to a chart recorder.
Thrombin-induced platelet aggregation: Thrombin-induced platelet aggregation in washed platelets for both wild-type and mutant dendroaspins were determined as described in Example 3 above, except thrombin was used as an agonist.

[2] = test system: platelets; experiment: ADP-induced platelet aggregation (RGD function); assay type: cell-based, human; settings: summary of FIG. 3D
Protocol: as §1

[3] = target: thrombin (Homo sapiens, UniProt P00734); experiment: Thrombin-induced fibrinogen clotting time; assay type: biochemical; settings: summary of FIG. 3D
Protocol: Thrombin-induced fibrinogen clotting time: Thrombin-induced fibrinogen clotting time was determined using an Amelung KC-10 instrument as follows. 50 μl of thrombin (3.3 μg/ml) in 50 mM Tris-HCL, pH7.5, containing 150 mM NaCl and 5 mM CaCl2 was mixed with 10 μl of various concentrations of both modified (Den-TM) and wild type dendroaspin (as a control for comparison). After a 2 min incubation at 37° C., 100 μl of fibrinogen (160 μg/ml) in the same buffer was added to determine the clotting time.
Amidolytic activity of thrombin and clotting of fibrinogen: The amidolytic activity of α-thrombin was performed using the chromogenic substrate S-2238 (Chromogenix) and α-thrombin at a final concentration of 0.06 unit/ml. Thrombin releases p-nitroaniline from the substrate and the rate of this reaction was monitored in microtiter plates at 405 nm using an automated spectrophotometer (Autoreader III, Ortho Diagnostic Systems). The inhibitory effect of Den-HR on thrombin cleavage of the chromogenic substrate was measured at final concentration between nM-mM. […] The time to observe the start of fibrinogen clotting (thrombin time) was measured using an automated coagulometer at 37° C. The effect of mutants on fibrinogen clotting by α-thrombin was determined by substituting the HEPES buffer in the first mixture with mutants at a range of concentrations.

[4] = test system: platelet adhesion to fibrinogen; settings: Lu X et al (1994); cited from earlier work
[5] = test system: binding of platelets to immobilized fibronectin; settings: Lu X et al (1994); cited from earlier work

Molecule	inhibition of thrombin-induced platelet aggregation [1]	inhibition of ADP-induced platelet aggregation [2]	thrombin clotting time [3]	inhibition of platelet adhesion to fibrinogen [4]	inhibition of binding of platelets to immobilized fibronectin [5]
SEQ ID NO:46: dendroaspin carrying the thrombomodulin-binding sequence of the B-chain of human thrombin; bifunctional molecule (RICFTPRGDMPGPYPGPCQEDSCYKNIWTFDNIIRRGPGPTWTANVGKGQPS)	inhibits	inhibits	delay		
kistrin				potent inhibitors	poor antagonists
B1	inhibits	inhibits	delays		
